According to patent US20230085307A1, “PYRIDAZINONE COMPOUND AND HERBICIDE” (NISSAN CHEMICAL CORPORATION, priority 2019, published 2023):

Assays:
barnyard grass [1] = test: Test Example 4: herbicidal effect by soil treatment (Table 19, symbol H); type: in vivo, barnyard grass (Echinochloa crus-galli)
Outline: (§1)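 Applied as a water-diluted emulsion, the compound was sprayed onto soil covering newly sown seeds. Evaluation came three weeks after application, in a greenhouse held at 25° C. to 30° C.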

velvetleaf [2] = test: Test Example 5: herbicidal effect by foliage application, plastic box (Table 20, symbol M); type: in vivo, velvetleaf (Abutilon theophrasti); conditions: foliage application
Outline: (§2)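 Sow seeds spot-wise in sterilized diluvial soil; cover with ~1.5 cm soil. Grow 14 days in greenhouse, 25° C. to 30° C. Spray foliage with emulsion diluted to predetermined amount. Rate effect after 3 weeks.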

redroot pigweed [3] = test: Test Example 5: herbicidal effect by foliage application, plastic box (Table 20, symbol N); type: in vivo, redroot pigweed (Amaranthus retroflexus); conditions: foliage application
Outline: as §2

southern crabgrass [4] = test: Test Example 5: herbicidal effect by foliage application, plastic box (Table 20, symbol F); type: in vivo, southern crabgrass (Digitaria ciliaris); conditions: foliage application
Outline: as §2

Chinese sprangletop = test: Test Example 3: herbicidal effect by foliage application, Wagner pot (Table 18, symbol D); type: in vivo, chinese sprangletop (Leptochloa chinensis)
Outline: (§3)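 Plants were sown in alluvial soil held under 0.1–0.5 cm standing water and grown 14 days in a greenhouse at 25–30 °C. An emulsifiable formulation, water-diluted to the set dose, was then sprayed onto the foliage, and effects were scored three weeks later using previously defined criteria.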

windgrass [5] = test: Test Example 4: herbicidal effect by soil treatment (Table 19, symbol L); type: in vivo, windgrass (Apera spica-venti)
Outline: as §1

wild oat [6] = test: Test Example 5: herbicidal effect by foliage application, plastic box (Table 20, symbol I); type: in vivo, wild oat (Avena fatua); conditions: foliage application
Outline: as §2

barnyard grass [7] = test: Test Example 3: herbicidal effect by foliage application, Wagner pot (Table 18, symbol H); type: in vivo, barnyard grass (Echinochloa crus-galli)
Outline: as §3

rice flat sedge = test: Test Example 3: herbicidal effect by foliage application, Wagner pot (Table 18, symbol E); type: in vivo, rice flat sedge (Cyperus iria)
Outline: as §3

Italian ryegrass [8] = test: Test Example 4: herbicidal effect by soil treatment (Table 19, symbol K); type: in vivo, Italian ryegrass (Lolium multiflorum)
Outline: as §1

green foxtail [9] = test: Test Example 5: herbicidal effect by foliage application, plastic box (Table 20, symbol G); type: in vivo, green foxtail (Setaria viridis); conditions: foliage application
Outline: as §2

persian speedwell [10] = test: Test Example 4: herbicidal effect by soil treatment (Table 19, symbol R); type: in vivo, Persian speedwell (Veronica persica)
Outline: as §1

lambsquarters [11] = test: Test Example 5: herbicidal effect by foliage application, plastic box (Table 20, symbol O); type: in vivo, lambsquarters (Chenopodium album); conditions: foliage application
Outline: as §2

windgrass [12] = test: Test Example 5: herbicidal effect by foliage application, plastic box (Table 20, symbol L); type: in vivo, windgrass (Apera spica-venti); conditions: foliage application
Outline: as §2

green foxtail [13] = test: Test Example 4: herbicidal effect by soil treatment (Table 19, symbol G); type: in vivo, green foxtail (Setaria viridis)
Outline: as §1

lambsquarters [14] = test: Test Example 4: herbicidal effect by soil treatment (Table 19, symbol O); type: in vivo, lambsquarters (Chenopodium album)
Outline: as §1

Italian ryegrass [15] = test: Test Example 5: herbicidal effect by foliage application, plastic box (Table 20, symbol K); type: in vivo, Italian ryegrass (Lolium multiflorum); conditions: foliage application
Outline: as §2

wild oat [16] = test: Test Example 4: herbicidal effect by soil treatment (Table 19, symbol I); type: in vivo, wild oat (Avena fatua)
Outline: as §1

velvetleaf [17] = test: Test Example 4: herbicidal effect by soil treatment (Table 19, symbol M); type: in vivo, velvetleaf (Abutilon theophrasti)
Outline: as §1

persian speedwell [18] = test: Test Example 5: herbicidal effect by foliage application, plastic box (Table 20, symbol R); type: in vivo, Persian speedwell (Veronica persica); conditions: foliage application
Outline: as §2

blackgrass [19] = test: Test Example 4: herbicidal effect by soil treatment (Table 19, symbol J); type: in vivo, blackgrass (Alopecurus myosuroides)
Outline: as §1

chickweed [20] = test: Test Example 4: herbicidal effect by soil treatment (Table 19, symbol P); type: in vivo, common chickweed (Stellaria media)
Outline: as §1

barnyard grass [21] = test: Test Example 5: herbicidal effect by foliage application, plastic box (Table 20, symbol H); type: in vivo, barnyard grass (Echinochloa crus-galli); conditions: foliage application
Outline: as §2

chickweed [22] = test: Test Example 5: herbicidal effect by foliage application, plastic box (Table 20, symbol P); type: in vivo, common chickweed (Stellaria media); conditions: foliage application
Outline: as §2

southern crabgrass [23] = test: Test Example 4: herbicidal effect by soil treatment (Table 19, symbol F); type: in vivo, southern crabgrass (Digitaria ciliaris)
Outline: as §1

blackgrass [24] = test: Test Example 5: herbicidal effect by foliage application, plastic box (Table 20, symbol J); type: in vivo, blackgrass (Alopecurus myosuroides); conditions: foliage application
Outline: as §2

redroot pigweed [25] = test: Test Example 4: herbicidal effect by soil treatment (Table 19, symbol N); type: in vivo, redroot pigweed (Amaranthus retroflexus)
Outline: as §1

[26] = 320 g/ha, evaluated three weeks after application
[27] = amount of applied herbicide 80 g/ha
[28] = 80 g/ha, three weeks after application

With `Cc1nn(C)c(=O)c(-c2c(-c3ccc(Cl)cc3)sc3ccc(Cl)cc23)c1O` [2-099] the “herbicidal effect rating, H: barnyard grass” value (barnyard grass [1]; 320 g/ha) was 0 (Herbicidal rate of 5% or less (almost no effect)), the “herbicidal effect on M: velvetleaf” value (velvetleaf [2]; [26]) was 5 (Herbicidal rate of 90% or more (almost completely withered)) and the “herbicidal effect on N: redroot pigweed” value (redroot pigweed [3]; [26]) was 5 (Herbicidal rate of 90% or more (almost completely withered)). The “herbicidal effect on F: southern crabgrass” value (southern crabgrass [4]; [26]) was 5 (Herbicidal rate of 90% or more (almost completely withered)), the “herbicidal effect on D (Chinese sprangletop), rating 0-5” value (Chinese sprangletop; 320 g/ha) was 4 (Herbicidal rate of 70% or more and less than 90%) and the “herbicidal effect rating, L: windgrass” value (windgrass [5]; 320 g/ha) was 4 (Herbicidal rate of 70% or more and less than 90%). For the same compound, the “herbicidal effect on I: wild oat” value (wild oat [6]; [26]) was 5 (Herbicidal rate of 90% or more (almost completely withered)), the “herbicidal effect on H (barnyard grass), rating 0-5” value (barnyard grass [7]; 320 g/ha) was 5 (Herbicidal rate of 90% or more (almost completely withered)) and the “herbicidal effect on E (rice flat sedge), rating 0-5” value (rice flat sedge; 320 g/ha) was 5 (Herbicidal rate of 90% or more (almost completely withered)). The “herbicidal effect rating, K: Italian ryegrass” value (Italian ryegrass [8]; 320 g/ha) was 5 (Herbicidal rate of 90% or more (almost completely withered)), the “herbicidal effect on G: green foxtail” value (green foxtail [9]; [26]) was 5 (Herbicidal rate of 90% or more (almost completely withered)) and the “herbicidal effect rating, R: persian speedwell” value (persian speedwell [10]; 320 g/ha) was 1 (Herbicidal rate of 5% or more and less than 20%). For the same compound, the “herbicidal effect on O: lambsquarters” value (lambsquarters [11]; [26]) was 5 (Herbicidal rate of 90% or more (almost completely withered)), the “herbicidal effect on L: windgrass” value (windgrass [12]; [26]) was 5 (Herbicidal rate of 90% or more (almost completely withered)) and the “herbicidal effect rating, G: green foxtail” value (green foxtail [13]; 320 g/ha) was 2 (Herbicidal rate of 20% or more and less than 40%). The “herbicidal effect rating, O: lambsquarters” value (lambsquarters [14]; 320 g/ha) was 3 (Herbicidal rate of 40% or more and less than 70%), the “herbicidal effect on K: Italian ryegrass” value (Italian ryegrass [15]; [26]) was 5 (Herbicidal rate of 90% or more (almost completely withered)) and the “herbicidal effect rating, I: wild oat” value (wild oat [16]; 320 g/ha) was 0 (Herbicidal rate of 5% or less (almost no effect)). For the same compound, the “herbicidal effect rating, M: velvetleaf” value (velvetleaf [17]; 320 g/ha) was 0 (Herbicidal rate of 5% or less (almost no effect)), the “herbicidal effect on R: persian speedwell” value (persian speedwell [18]; [26]) was 5 (Herbicidal rate of 90% or more (almost completely withered)) and the “herbicidal effect rating, J: blackgrass” value (blackgrass [19]; 320 g/ha) was 2 (Herbicidal rate of 20% or more and less than 40%). For the same compound, the “herbicidal effect rating, P: chickweed” value (chickweed [20]; 320 g/ha) was 4 (Herbicidal rate of 70% or more and less than 90%), the “herbicidal effect on H: barnyard grass” value (barnyard grass [21]; [26]) was 5 (Herbicidal rate of 90% or more (almost completely withered)) and the “herbicidal effect on P: chickweed” value (chickweed [22]; [26]) was 5 (Herbicidal rate of 90% or more (almost completely withered)). For the same compound, the “herbicidal effect rating, F: southern crabgrass” value (southern crabgrass [23]; 320 g/ha) was 0 (Herbicidal rate of 5% or less (almost no effect)), the “herbicidal effect on J: blackgrass” value (blackgrass [24]; [26]) was 4 (Herbicidal rate of 70% or more and less than 90%) and the “herbicidal effect rating, N: redroot pigweed” value (redroot pigweed [25]; 320 g/ha) was 3 (Herbicidal rate of 40% or more and less than 70%).
With `CCc1nn(C)c(=O)c(-c2c(-c3ccc(C(F)(F)F)cc3)sc3ccc(F)cc23)c1O` [2-410] the “herbicidal effect, H: barnyard grass” value (barnyard grass [1]; [27]) was 0 (Herbicidal rate of 5% or less (almost no effect)), the “M: velvetleaf, herbicidal effect grade” value (velvetleaf [2]; [28]) was 1 (Herbicidal rate of 5% or more and less than 20%) and the “N: redroot pigweed, herbicidal effect grade” value (redroot pigweed [3]; [28]) was 3 (Herbicidal rate of 40% or more and less than 70%). The “F: southern crabgrass, herbicidal effect grade” value (southern crabgrass [4]; [28]) was 0 (Herbicidal rate of 5% or less (almost no effect)), the “herbicidal effect on D: Chinese sprangletop” value (Chinese sprangletop; [27]) was 0 (Herbicidal rate of 5% or less (almost no effect)) and the “herbicidal effect, L: windgrass” value (windgrass [5]; [27]) was 0 (Herbicidal rate of 5% or less (almost no effect)). For the same compound, the “I: wild oat, herbicidal effect grade” value (wild oat [6]; [28]) was 0 (Herbicidal rate of 5% or less (almost no effect)), the “herbicidal effect on H: barnyard grass” value (barnyard grass [7]; [27]) was 4 (Herbicidal rate of 70% or more and less than 90%) and the “herbicidal effect on E: rice flat sedge” value (rice flat sedge; [27]) was 1 (Herbicidal rate of 5% or more and less than 20%). The “herbicidal effect, K: Italian ryegrass” value (Italian ryegrass [8]; [27]) was 0 (Herbicidal rate of 5% or less (almost no effect)), the “G: green foxtail, herbicidal effect grade” value (green foxtail [9]; [28]) was 2 (Herbicidal rate of 20% or more and less than 40%) and the “herbicidal effect, R: persian speedwell” value (persian speedwell [10]; [27]) was 0 (Herbicidal rate of 5% or less (almost no effect)). The “O: lambsquarters, herbicidal effect grade” value (lambsquarters [11]; [28]) was 3 (Herbicidal rate of 40% or more and less than 70%), the “L: windgrass, herbicidal effect grade” value (windgrass [12]; [28]) was 0 (Herbicidal rate of 5% or less (almost no effect)) and the “herbicidal effect, G: green foxtail” value (green foxtail [13]; [27]) was 1 (Herbicidal rate of 5% or more and less than 20%). The “herbicidal effect, O: lambsquarters” value (lambsquarters [14]; [27]) was 1 (Herbicidal rate of 5% or more and less than 20%), the “K: Italian ryegrass, herbicidal effect grade” value (Italian ryegrass [15]; [28]) was 0 (Herbicidal rate of 5% or less (almost no effect)) and the “herbicidal effect, I: wild oat” value (wild oat [16]; [27]) was 0 (Herbicidal rate of 5% or less (almost no effect)). For the same compound, the “herbicidal effect, M: velvetleaf” value (velvetleaf [17]; [27]) was 0 (Herbicidal rate of 5% or less (almost no effect)), the “R: persian speedwell, herbicidal effect grade” value (persian speedwell [18]; [28]) was 4 (Herbicidal rate of 70% or more and less than 90%) and the “herbicidal effect, J: blackgrass” value (blackgrass [19]; [27]) was 0 (Herbicidal rate of 5% or less (almost no effect)). For the same compound, the “herbicidal effect, P: chickweed” value (chickweed [20]; [27]) was 0 (Herbicidal rate of 5% or less (almost no effect)), the “H: barnyard grass, herbicidal effect grade” value (barnyard grass [21]; [28]) was 3 (Herbicidal rate of 40% or more and less than 70%) and the “P: chickweed, herbicidal effect grade” value (chickweed [22]; [28]) was 4 (Herbicidal rate of 70% or more and less than 90%). The “herbicidal effect, F: southern crabgrass” value (southern crabgrass [23]; [27]) was 0 (Herbicidal rate of 5% or less (almost no effect)), the “J: blackgrass, herbicidal effect grade” value (blackgrass [24]; [28]) was 0 (Herbicidal rate of 5% or less (almost no effect)) and the “herbicidal effect, N: redroot pigweed” value (redroot pigweed [25]; [27]) was 3 (Herbicidal rate of 40% or more and less than 70%).
